Laboratory results published in patent publication US12378211B2, “Carbonic anhydrase inhibitors and antibiotics against multidrug resistant bacteria” (Purdue Research Foundation, priority 2018, dated 2025).
In brackets after ≈: the same amount, converted by molar mass. Where two headings read alike, the source gives them in different places.

How the values were obtained:
[1] = test system: Staphylococcus epidermidis NRS 101; assay: MIC against Staphylococci, broth microdilution; format: cell-based; details: TSB
Summary of the method: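 CLSI broth microdilution in tryptone soy broth, inoculum about 5×10^5 CFU/mL from overnight agar cultures at 0.5 McFarland, with serially diluted compound. Plates were incubated aerobically at 37° C for 18-20 h. MIC was the lowest concentration with no visible growth.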

[2] = test system: Bacteroides dorei—CL02T12C06 HM-719; assay: MIC against human normal gut microbiota; format: cell-based; details: BHIS broth, anaerobic, 48 hours
Summary of the method: (§1)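 Strains are first cultured 48 h at 37° C on agar (BHIS anaerobic; MRS with 5% CO2). They are then adjusted to 0.5 McFarland in PBS and diluted to ~5×10^5 CFU/ml in matching broth. Finally they are incubated 48 h with compound serial dilutions under the same atmosphere.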

[3] = test system: Lactobacillus gasseri EX336960VC03 HIM-400; assay: MIC against human normal gut microbiota; format: cell-based; details: MRS broth, 5% CO2, 48 hours
Summary of the method: as §1

[4] = test system: Mutant-3 of Enterococcus fecalis NR 31975; assay: microbe, parasite or virus in culture; format: cell-based
[5] = test system: Enterococcus faecalis-S613 HM-334; assay: MIC in presence of 4% human serum albumin; format: cell-based; details: TSB supplemented with 4% human serum albumin
Method: The minimum inhibitory concentrations (MICs) of CAIs were tested against vancomycin resistant Enterococcus faecalis—S613 HM 334 strain as per the guidelines provided by the Clinical and Laboratory Standards Institute (CLSI). The selected strain was streaked on Tryptic Soy Agar (TSA) plate and let grow for 24 hours at 37° C. Afterwards, a bacterial solution equivalent to 0.5 McFarland standard was prepared and diluted in tryptone soy broth (TSB) supplemented with 4% human serum albumin (HAS) to achieve a bacterial concentration of about 5×10^5 CFU/mL and seeded in 96-well well plates. Compounds and control drugs were added in the first row of the 96-well plates and serially diluted along the plates. Plates were then incubated aerobically at 37° C. for 18-20 hours. MICs reported in table (6) are the minimum concentration of the compounds/control drugs that could inhibit completely the visual growth of the bacteria.

[6] = test system: Wild-type E. fecalis (NR 31975); assay: MIC against wild-type strain (mutant study); format: cell-based, Enterococcus fecalis
[7] = test system: human colorectal adenocarcinoma (Caco-2) cell; assay: In vitro cytotoxicity, MTS assay, Caco-2 cells; details: at concentration up to 128 μg/mL; tested at 64 and 128 μg/mL; two hours
Method: Method: Compounds AS005H, AS005J, AS004B, AS005K, AS005A and 005D were assayed (at concentrations of 64 and 128 μg/mL) against a human colorectal adenocarcinoma (Caco-2) cell to determine the potential toxic effect to mammalian cells in vitro. Briefly, cells were cultured in Dulbecco's Modified Eagle Medium (DMEM) supplemented with 20% fetal bovine serum (FBS), non-essential amino acids (1×), penicillin-streptomycin at 37° C. with CO2 (5%). Control cells received DMSO alone at a concentration equal to that in drug-treated cell samples. The cells were incubated with the compounds (in triplicate) in a 96-well plate at 37° C. with CO2 (5%) for two hours. The assay reagent MTS 3-(4,5-dimethylthiazol-2-yl)-5-(3-carboxymethoxyphenyl)-2-(4-sulfophenyl)-2H-tetrazolium) (Promega, Madison, WI, USA) was subsequently added and the plate was incubated for four hours. Absorbance readings (at OD490) were taken using a kinetic microplate reader (Molecular Devices, Sunnyvale, CA, USA). The quantity of viable cells after treatment with each compound was expressed as a percentage of the viability of DMSO-treated control cells (average of triplicate wells±standard deviation). The toxicity data was analyzed via a two-way ANOVA, with post hoc Dunnet's multiple comparisons test (P<0.05), utilizing GraphPad Prism 6.0 (GraphPad Software, La Jolla, CA).
Percent viable mammalian cells (measured as average absorbance ratio (test agent relative to DMSO) for cytotoxicity analysis of AS005H, AS005J, AS004B, AS005K, AS005A and 005D compounds (tested in triplicate) at 64 and 128 μg/mL against Caco-2 cells using the MTS 3-(4,5-dimethylthiazol-2-yl)-5-(3-carboxymethoxyphenyl)-2-(4-sulfophenyl)-2H-tetrazolium) assay. Dimethyl sulfoxide (DMSO) was used as a negative control to determine a baseline measurement for the cytotoxic impact of each compound. The absorbance values represent an average of a minimum of three samples analyzed for each compound. Error bars represent standard deviation values for the absorbance values. […]

[8] = Staphylococcus epidermidis, NRS101, read-out: MIC
[9] = Lactobacillus gasseri, read-out: MIC
[10] = Enterococcus, Table 4, read-out: MIC

Row | SMILES | MIC [1, 8] [µg/mL] | MIC ([2]; Bacteroides, read-out: MIC) [µg/mL] | MIC [3, 9] [µg/mL] | MIC ([4]; Enterococcus) [µg/mL] | MIC ([5]; Enterococcus, read-out: MIC) [µg/mL] | MIC [6, 10] [µg/mL] | toxicity to Caco-2 cells (percent viable cells relative to DMSO) [7] | MIC [1] [µg/mL] | MIC [2] [µg/mL] | MIC [3] [µg/mL] | MIC ([4]; Mutant-3) [µg/mL] | MIC ([6]; Table 4) [µg/mL] | MIC [5] [µg/mL]
1 | CC(=O)Nc1nnc(S(N)(=O)=O)s1 [Acetazolamide, reference compound] | > 64 | > 64 | > 64 | 32 (≈ 144 µM) | > 256 |  |  |  |  |  |  |  | 
2 | CC(C)(C)C(=O)Nc1nnc(S(N)(=O)=O)s1 [CAI0010, N-(5-Sulfamoyl-1,3,4-thiadiazol-2-yl) pivalamide] | > 64 | > 64 | > 64 | 4 (≈ 15.1 µM) | > 256 | 0.5 (≈ 1.89 µM) | non-toxic |  |  |  |  |  | 
3 | CC(C)C(=O)Nc1nnc(S(N)(=O)=O)s1 [CAI0011, N-(5-Sulfamoyl-1,3,4-thiadiazol-2-yl) isobutyramide] | > 64 | > 64 | > 64 |  |  |  | non-toxic |  |  |  |  |  | 
4 | NS(=O)(=O)c1nnc(NC(=O)CCC2CCCC2)s1 [CAI0015] |  |  |  |  |  |  |  | >64 | >64 | >64 | 1 (≈ 3.29 µM) | 0.0625 (≈ 0.205 µM) | >256
5 | CC(C)=CC(=O)Nc1nnc(S(N)(=O)=O)s1 [CAI0016, 3-Methyl-N-(5-sulfamoyl-1,3,4-thiadiazol-2-yl) but-2-enamide] |  |  |  |  |  |  |  | >64 | >64 | >64 | 4 (≈ 15.2 µM) | 1 (≈ 3.81 µM) | >256
6 | CCc1ccc(C(=O)Nc2nnc(S(N)(=O)=O)s2)cc1 [CAI0017, 4-Ethyl-N-(5-sulfamoyl-1,3,4-thiadiazol-2-yl)benzamide] | > 64 | > 64 | > 64 | 8 (≈ 25.6 µM) |  | 2 (≈ 6.4 µM) | non-toxic |  |  |  |  |  | 
7 | CC(=O)NC[C@H]1CN(c2ccc(N3CCOCC3)c(F)c2)C(=O)O1 [Linezolid, reference compound] | ≤ 0.5 | 1 (≈ 2.96 µM) | 2 (≈ 5.93 µM) | 4 (≈ 11.9 µM) |  |  |  |  |  |  |  |  | 
